Experimental data: patent US10085449B2, “N-[1-((6-chloropyridin-3-yl)methyl)pyridin-2(1H)-ylidene]-2,2,2- trifluoroacetamide for control of agricultural/horticultural pests” (priority 2010, dated 2018)
Like-named read-outs stand apart in the source and are kept apart here.

Tests used:
Format in all cases: in vivo
western flower thrips = test: whole plant or invertebrate; conditions: Frankliniella occidentalis, foliar
In short: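 Bean leaf discs sprayed with compound in 50% acetone/water with 0.05% Tween 20, air dried, then infested with first-instar larvae. Held at 25° C under 16 h light/8 h dark; live and dead counted after 3 days to give % mortality, two replicates.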

rice water weevil = test: Rice water weevil control test (soil drenching treatment); conditions: 0.1 mg/seedling soil drenching of rice seedlings, adults, 3 days after release
Method: (§1) Rice seedlings grown in pots were subjected to soil drenching treatment with solutions of the inventive compounds at a predetermined concentration prepared to 10% acetone/water. Two days after treatment, five adult rice water weevils were released onto each seedling. The seedlings and insects were then held in an incubation chamber at 25° C. (16-hour period of light, 8-hour dark period). Three days after released, the numbers of live and dead insects were counted, and the mortality was calculated from the following formula. The test was carried out as two replications. Mortality (%)=[number of dead insects/(number of live insects+number of dead insects)]×100

[1] = test system: small brown planthopper having a low susceptibility to insecticides; test: Small brown planthopper control test, pests having a low susceptibility to insecticides (soil drenching); conditions: both lines (susceptible and field-collected)
Method: as §1, with “Three” for “Two”, “ten second-instar small brown planthopper larvae having a low susceptibility to insecticides” for “five adult rice water weevils”
The pests used in this test were insects that had been raised indoors for successive generations over a long period of time (susceptible line), and insects that had been raised indoors for successive generations after being collected in 2006 within Kumamoto Prefecture (field-collected line).

house fly = test: House fly control test (local application); set-up: dose or concentration left out as unconfirmed
Method: The inventive compounds prepared to a predetermined concentration in acetone were applied in an amount of 1 μL (per insect) to the backs of adult female flies raised indoors. Following chemical treatment, the flies were transferred to plastic cups, with five flies being placed in each cup, and held in an incubation chamber at 25° C. (16-hour period of light, 8-hour dark period). Twenty-four hours after treatment, the state of knockdown among the flies was observed, and the knockdown rate was calculated from the following formula. The test was carried out as two replications. Knockdown rate (%)=[number of knocked down insects/(number of live insects+number of knocked down insects)]×100

small brown planthopper [2] = test: whole plant or invertebrate; conditions: Laodelphax striatellus, foliar
Method: Rice seedlings grown in pots were subjected to the foliar application of solutions of the inventive compounds at a predetermined concentration prepared to 50% acetone/water (containing 0.05% Tween 20). The treated seedlings were air dried, following which second-instar larvae were released onto the seedlings. The seedlings and larvae were then held in an incubation chamber at 25° C. (16-hour period of light, 8-hour dark period). Three days after released, the numbers of live and dead insects were counted, and the mortality was calculated from the following formula. This was a two-replication test. Mortality (%)=[number of dead insects/(number of live insects+number of dead insects)]×100

small brown planthopper [3] = test: whole plant or invertebrate; conditions: Laodelphax striatellus, in Triticum aestivum, 96 h
In short: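 Roots of 48-h wheat seedlings took up compound in 10% acetone/water for 72 h, then ten second-instar larvae were released per seedling and held at 25 °C (16 h light/8 h dark). Mortality counted four days after release; two replications.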

diamondback moth = test: whole plant or invertebrate; conditions: Plutella xylostella, foliar
In short: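 Cabbage leaf discs sprayed with compound in 50% acetone/water with 0.05% Tween 20, air-dried, then infested with second-instar larvae. Held at 25 °C under 16 h light/8 h dark; mortality from dead/(live+dead) counts after 3 days, two replicates.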

brown-winged green bug = test: Brown-winged green bug control test; conditions: 50 ppm foliar application on young apples, adults, 6 days after release
Method: Young apples that had been collected in the field were sprayed with solutions of the inventive compounds at a predetermined concentration prepared to 50% acetone/water (containing 0.05% Tween 20). The treated fruits were air-dried, placed in plastic cups and two adult brown-winged green bugs were released into each cup. Following release of the insects, the fruits and insects were held in an incubation chamber at 25° C. (16-hour period of light, 8-hour dark period). Six days after released, the numbers of live and dead insects were counted, and the mortality was calculated from the following formula. Mortality (%)=[number of dead insects/(number of live insects+number of dead insects)]×100

[4] = read-out: Insecticidal effects (mortality), western flower thrips first-instar larvae
[5] = read-out: Insecticidal effects (mortality), small brown planthopper second-instar larvae
[6] = read-out: Insecticidal effects (mortality), diamondback moth second-instar larvae

O=C(N=c1ccccn1Cc1ccc(Cl)nc1)C(F)(F)F [Compound 212, N-[1-((6-chloropyridin-3-yl)methyl)pyridin-2(1H)-ylidene]-2,2,2-trifluoroacetamide]
≥ 80%: mortality at 100 ppm (western flower thrips; 72 h) | mortality at 500 ppm (western flower thrips; 72 h) | mortality at 100 ppm (small brown planthopper [2]; in Oryza sativa, 72 h) | mortality at 20 µg/seedling (small brown planthopper [3]) | mortality at 100 ppm (diamondback moth; in Brassica oleracea, 72 h) | mortality at 500 ppm (diamondback moth; in Brassica oleracea, 72 h)
65%: mortality at 20 ppm (western flower thrips; [4])
50%: mortality at 0.0078 mg/seedling (small brown planthopper [3]; [5]) | mortality at 0.016 mg/seedling (small brown planthopper [3]; [5])
100: Insecticidal effects (mortality), adult houseflies (house fly)
75%: mortality at 0.313 ppm (small brown planthopper [2]; [5])
at least 80%: Mortality (rice water weevil) | Mortality (brown-winged green bug)
at least 90%: Mortality ([1]; 0.005 mg/seedling soil drenching)
100%: mortality at 100 ppm (western flower thrips; [4]) | mortality at 500 ppm (western flower thrips; [4]) | Mortality ([1]; 0.01 mg/seedling soil drenching) | mortality at 1.25 ppm (small brown planthopper [2]; [5]) | mortality at 5 ppm (small brown planthopper [2]; [5]) | mortality at 0.031 mg/seedling (small brown planthopper [3]; [5]) | mortality at 0.063 mg/seedling (small brown planthopper [3]; [5]) | mortality at 0.125 mg/seedling (small brown planthopper [3]; [5]) | mortality at 0.25 mg/seedling (small brown planthopper [3]; [5]) | mortality at 0.5 mg/seedling (small brown planthopper [3]; [5]) | mortality at 2 mg/seedling (small brown planthopper [3]; [5]) | mortality at 20 mg/seedling (small brown planthopper [3]; [5]) | mortality at 20 ppm (diamondback moth; [6]) | mortality at 100 ppm (diamondback moth; [6]) | mortality at 500 ppm (diamondback moth; [6])
